# Literature values as cited in paper PMC12005229, “Final results from the phase Ia/Ib study of the novel bromodomain and extra-terminal domain inhibitor, BI 894999, in patients with advanced solid tumors or diffuse large B-cell lymphoma” (ESMO Open, 2025).
# Tests used:
# [1] = test system: patients with relapsed/refractory DLBCL; parameters: method as in PMID 34581757; conditions: in combination with venetoclax and rituximab, 39 patients with relapsed/refractory DLBCL; cited from earlier work
# [2] = test system: patients with relapsed/refractory acute myeloid leukemia; parameters: method as in PMID 33934351; conditions: 44 patients with relapsed/refractory acute myeloid leukemia; cited from earlier work
smiles,measurement,setting,value
Cc1sc2c(c1C)C(c1ccc(Cl)cc1)=N[C@@H](CC(=O)NCCCN1CCN(C)CC1)c1nnc(C)n1-2 [RO6870810],complete responses,[1],20.5%
same,overall response rate,[1],38.5%
CCS(=O)(=O)Nc1ccc(Oc2ccc(F)cc2F)c(-c2cn(C)c(=O)c3[nH]ccc23)c1 [mivebresib],efficacy of combination with venetoclax compared with monotherapy,[2],higher efficacy in the combination group
